Test results published in patent publication US20070292392A1, “USE OF THYMOSIN ALPHA 1 FOR PREPARING A MEDICAMENT FOR THE TREATMENT OF STAGE IV MALIGNANT MELANOMA” (SIGMA-TAU INDUSTRIE FARMACEUTICHE RIUNITE S.P.A., priority 2006, published 2007).
Ends that are not written are not given here.

Columns and labels:
[1] = tested on: metastatic melanoma; conditions: cited from earlier work
[2] = tested on: stage IV melanoma characterized by distant unresectable metastases; assay: Phase II clinical trial with DTIC plus Tα1 with or without IFNα vs DTIC plus IFNα; tumor response by RECIST; format: in vivo, human; conditions: preliminary analysis on 142 patients; at the higher doses of Tα1
Description: Phase II Clinical Trial with Dacarbazine (DTIC) Plus Thymosin alpha 1 (Tα1) with or without Interferon alpha (IFNα) vs DTIC Plus IFNα in Stage IV Melanoma Characterized by Distant Unresectable Metastases
Trial Design phase II, randomized, stratified, open-study testing different doses of Tα1 in association with DTIC and IFNα, as first line therapy for stage IV melanoma patients characterized by distant unresectable metastases (AJCC; Journal of Clinical Oncology 2001, 19: 3635-3648) without brain metastases. The primary study end-point was tumor response, and the following combination composition were used:
The protocol was than amended: 30 patients were added to each of the 2 triple therapies in order to balance the sample size of all the four groups and the following new group (using a higher dose of Tα1) was added:
The five groups were analyzed independently one another within the so-called “pick the winner” strategy.
Methods: Recycling every 28 days, patients were administered DTIC (800 mg/m^2) i.v. at day 1, Tα1 (1.6 or 3.2 mg) s.c. at days 8-11 and 15-18, and IFNα (3 MIU) s.c. at day 11 and 18. Clinical response was evaluated every two cycles according to RECIST criteria (New Guidelines to Evaluate the Response to Treatment in Solid Tumors; Journal of the National Cancer Institute, 2000. 92: 205-216) utilizing a central reader. […]

[3] = tested on: human non-small cell lung cancer (NSCLC) cells; conditions: subcutaneous 1 or 10 mg per day; nude mice previously inoculated with human NSCLC cells; cited from earlier work
[4] = tested on: lymphosarcoma cells; conditions: BALB/c mice; cited from earlier work

Row | Molecule | duration of responses (short-lived) ([1]; DTIC responses) | effect of responses on patients' overall survival ([1]; DTIC) | actual overall responses to DTIC ([1]; Journal of Clinical Oncology and ASCO proceedings 2004) | dose-response effect on tumor response [2] | tumor volume [3] | local sarcoma growth as well as liver and lung metastases of lymphosarcoma cells [4]
1 | CN(C)/N=N/c1[nH]cnc1C(N)=O [DTIC, Dacarbazine] | three to six | no evidence that these responses have any effect on the patients' overall survival | 5.5-6.8% |  |  | 
2 | thymosin alpha 1 (SDAAVDTSSEITTKDLKEKKEVVEEAEN; ends and bridges not checked; UniProt P06454 2-29, looked up) [a compound well known in the medical field] |  |  |  | clear dose-response effect | significantly decreased | significantly reduced
